Test results: patent US6599747B1, “Soil test” (University of Lancaster, priority 1998, dated 2003)

Assay: Extraction of soil-associated 14C-9-phenanthrene with aqueous HPCD solution
Assay type: physicochemical
Conditions: for Concentration Extracted into HPCD Solution: 20 h
Method: A sample was “spiked” with 10 mg kg^−1 14C-9phenanthrene. Samples of the soil (1.25 g) were then extracted for 20 hours (sufficient time for extraction of the rapidly i.e. non-kinetically restrained fraction of compounds to be exchanged—see Example 2) with increasing concentration solutions (25 ml) of HPCD in water. The amount of activity exchanged into the HPCD solution was measured as was the total activity present. The results are shown in Table 1 in which the activity units are dpm g^−1 soil (where dpm stands for disintegrations per minute).
The above extraction was repeated but using an HPCD solution having a concentration of 50 mM. However the extraction was terminated after 3, 6, 12, 18, 24 and 40 hours. The results are shown in Table 2 in which the activity units are dpm […] soil (where dpm stands for disintegration per minute).
Soil was “spiked” to concentrations of 25 and 50 mg kg^−1. The above extraction was repeated but using a HPCD solution having a concentration of 50 mM. Soil samples were aged for 1, 42 and 84 d prior to extraction. An extraction time of 20 h was used as before (Example 1 and 2 ). The biodegradability of the soil associated ^14C-9-phenanthrene was assessed using respirometry. Respirometers consisted of Erlyn,eyer flasks (250 mL), to which soil (10 g) and water (30 mL) were added. The flasks were innoculated (10^7-10^8 g^−1 soil) with a catabolocally active microbial culture. The sealed flasks were shaken and the carbon dioxide evolved from the biodegration of the phenanthrene trapped in potassium hydroxide (1 M, 1 mL.) Mineralisation was measured until it platcauted (240 h).

[1] = HPCD 0 mM, 20 h extraction, soil spiked 10 mg kg^−1
[2] = HPCD 5 mM, 20 h extraction, soil spiked 10 mg kg^−1
[3] = HPCD 10 mM, 20 h extraction, soil spiked 10 mg kg^−1
[4] = HPCD 20 mM, 20 h extraction, soil spiked 10 mg kg^−1
[5] = HPCD 40 mM, 20 h extraction, soil spiked 10 mg kg^−1
[6] = HPCD 50 mM, 20 h extraction, soil spiked 10 mg kg^−1
[7] = HPCD 60 mM, 20 h extraction, soil spiked 10 mg kg^−1

Compound: c1ccc2c(c1)ccc1ccccc12 [phenanthrene]
- HPCD solution concentration giving maximum extraction (20 h extraction, soil spiked 10 mg kg^−1): 40 mM
- % Exchangeable with HPCD solution [1]: 2.79%
- Activity Exchanged into HPCD Solution [1]: 86.96 dpm g^−1 soil
- % Exchangeable with HPCD solution [2]: 38.06%
- Activity Exchanged into HPCD Solution [2]: 1186.25 dpm g^−1 soil
- % Exchangeable with HPCD solution [3]: 45.88%
- Activity Exchanged into HPCD Solution [3]: 1429.98 dpm g^−1 soil
- % Exchangeable with HPCD solution [4]: 57.51%
- Activity Exchanged into HPCD Solution [4]: 1792.47 dpm g^−1 soil
- % Exchangeable with HPCD solution [5]: 71.63%
- Activity Exchanged into HPCD Solution [5]: 2232.56 dpm g^−1 soil
- extraction time after which the rapidly (non-kinetically restrained) fraction was extracted (HPCD 50 mM): 6 h
- % Exchangeable with HPCD solution [6]: 64.33%
- Activity Exchanged into HPCD Solution [6]: 2005.03 dpm g^−1 soil
- % Exchangeable with HPCD solution (HPCD 50 mM, extraction time 0 h): 0.0%
- % Exchangeable with HPCD solution (HPCD 50 mM, extraction time 3 h): 64.2%
- % Exchangeable with HPCD solution (HPCD 50 mM, extraction time 6 h): 73.4%
- % Exchangeable with HPCD solution (HPCD 50 mM, extraction time 12 h): 72.8%
- % Exchangeable with HPCD solution (HPCD 50 mM, extraction time 18 h): 74.5%
- % Exchangeable with HPCD solution (HPCD 50 mM, extraction time 24 h): 76.8%
- % Exchangeable with HPCD solution (HPCD 50 mM, extraction time 40 h): 75.6%
- % Exchangeable with HPCD solution [7]: 69.74%
- Activity Exchanged into HPCD Solution [7]: 2173.65 dpm g^−1 soil
- Concentration Extracted into HPCD Solution (soil spiked 25 mg/kg^−1, aged 1 d, HPCD 50 mM): 19.5 mg/kg^−1
- Concentration Extracted into HPCD Solution (soil spiked 25 mg/kg^−1, aged 42 d, HPCD 50 mM): 17.6 mg/kg^−1
- Concentration Extracted into HPCD Solution (soil spiked 25 mg/kg^−1, aged 84 d, HPCD 50 mM): 15.5 mg/kg^−1
- Concentration Extracted into HPCD Solution (soil spiked 50 mg/kg^−1, aged 1 d, HPCD 50 mM): 29.9 mg/kg^−1
- Concentration Extracted into HPCD Solution (soil spiked 50 mg/kg^−1, aged 42 d, HPCD 50 mM): 15.4 mg/kg^−1
- Concentration Extracted into HPCD Solution (soil spiked 50 mg/kg^−1, aged 84 d, HPCD 50 mM): 1.0 mg/kg^−1
